Reference: ChEMBL document CHEMBL3399937, “(18)F-AmBF3-MJ9: a novel radiofluorinated bombesin derivative for prostate cancer imaging” (Bioorg Med Chem, 2015)

Tests used:
Conditions in all cases: in vivo
[1] = system: Bone; experiment: Biodistribution in bone of NSG mouse xenografted with human PC-3 tumor at 0.37 to 0.74 MBq, iv after 0.5 hrs by gamma counting analysis; assay type: ADME, organism-based, Bone element
[2] = system: Brain; experiment: Biodistribution in brain of NSG mouse xenografted with human PC-3 tumor at 0.37 to 0.74 MBq, iv after 2 hrs by gamma counting analysis; assay type: ADME, organism-based
[3] = Biodistribution in fat of NSG mouse xenografted with human PC-3 tumor at 0.37 to 0.74 MBq, iv after 1 hr by gamma counting analysis; assay type: ADME, organism-based, Adipose tissue
[4] = system: Kidney; experiment: Biodistribution in kidney of NSG mouse xenografted with human PC-3 tumor at 0.37 to 0.74 MBq, iv after 1 hr by gamma counting analysis; assay type: ADME, organism-based
[5] = system: Tumour; experiment: Biodistribution in tumor of NSG mouse xenografted with human PC-3 tumor at 0.37 to 0.74 MBq, iv after 0.5 hrs by gamma counting analysis; assay type: ADME, organism-based, Neoplasm
[6] = system: Mus musculus; experiment: Biodistribution in testis of NSG mouse xenografted with human PC-3 tumor at 0.37 to 0.74 MBq, iv after 1 hr by gamma counting analysis in presence of BAY86-7548; assay type: ADME, organism-based
[7] = system: Muscle tissue; experiment: Biodistribution in muscle of NSG mouse xenografted with human PC-3 tumor at 0.37 to 0.74 MBq, iv after 1 hr by gamma counting analysis in presence of BAY86-7548; assay type: ADME, organism-based
[8] = system: Bone; experiment: Biodistribution in bone of NSG mouse xenografted with human PC-3 tumor at 0.37 to 0.74 MBq, iv after 2 hrs by gamma counting analysis; assay type: ADME, organism-based, Bone element
[9] = system: Blood; experiment: Biodistribution in blood of NSG mouse xenografted with human PC-3 tumor at 0.37 to 0.74 MBq, iv after 1 hr by gamma counting analysis; assay type: ADME, organism-based
[10] = system: Liver; experiment: Biodistribution in liver of NSG mouse xenografted with human PC-3 tumor at 0.37 to 0.74 MBq, iv after 0.5 hrs by gamma counting analysis; assay type: ADME, organism-based
[11] = system: Bone; experiment: Biodistribution in bone of NSG mouse xenografted with human PC-3 tumor at 0.37 to 0.74 MBq, iv after 1 hr by gamma counting analysis in presence of BAY86-7548; assay type: ADME, organism-based, Bone element
[12] = system: Heart; experiment: Biodistribution in heart of NSG mouse xenografted with human PC-3 tumor at 0.37 to 0.74 MBq, iv after 1 hr by gamma counting analysis; assay type: ADME, organism-based
[13] = system: Lung; experiment: Biodistribution in lung of NSG mouse xenografted with human PC-3 tumor at 0.37 to 0.74 MBq, iv after 0.5 hrs by gamma counting analysis; assay type: ADME, organism-based
[14] = system: Blood; experiment: Biodistribution in blood of NSG mouse xenografted with human PC-3 tumor at 0.37 to 0.74 MBq, iv after 0.5 hrs by gamma counting analysis; assay type: ADME, organism-based
[15] = system: Heart; experiment: Biodistribution in heart of NSG mouse xenografted with human PC-3 tumor at 0.37 to 0.74 MBq, iv after 2 hrs by gamma counting analysis; assay type: ADME, organism-based
[16] = Biodistribution in fat of NSG mouse xenografted with human PC-3 tumor at 0.37 to 0.74 MBq, iv after 0.5 hrs by gamma counting analysis; assay type: ADME, organism-based, Adipose tissue
[17] = system: Mus musculus; experiment: Biodistribution in seminal gland of NSG mouse xenografted with human PC-3 tumor at 0.37 to 0.74 MBq, iv after 1 hr by gamma counting analysis in presence of BAY86-7548; assay type: ADME, organism-based
[18] = Biodistribution in fat of NSG mouse xenografted with human PC-3 tumor at 0.37 to 0.74 MBq, iv after 2 hrs by gamma counting analysis; assay type: ADME, organism-based, Adipose tissue
[19] = system: Kidney; experiment: Biodistribution in kidney of NSG mouse xenografted with human PC-3 tumor at 0.37 to 0.74 MBq, iv after 0.5 hrs by gamma counting analysis; assay type: ADME, organism-based
[20] = system: Heart; experiment: Biodistribution in heart of NSG mouse xenografted with human PC-3 tumor at 0.37 to 0.74 MBq, iv after 0.5 hrs by gamma counting analysis; assay type: ADME, organism-based
[21] = system: Mus musculus; experiment: Biodistribution in adrenal gland of NSG mouse xenografted with human PC-3 tumor at 0.37 to 0.74 MBq, iv after 0.5 hrs by gamma counting analysis; assay type: ADME, organism-based
[22] = system: Mus musculus; experiment: Biodistribution in adrenal gland of NSG mouse xenografted with human PC-3 tumor at 0.37 to 0.74 MBq, iv after 1 hr by gamma counting analysis in presence of BAY86-7548; assay type: ADME, organism-based
[23] = system: Pancreas; experiment: Biodistribution in pancreas of NSG mouse xenografted with human PC-3 tumor at 0.37 to 0.74 MBq, iv after 0.5 hrs by gamma counting analysis; assay type: ADME, organism-based
[24] = system: Mus musculus; experiment: Biodistribution in testis of NSG mouse xenografted with human PC-3 tumor at 0.37 to 0.74 MBq, iv after 2 hrs by gamma counting analysis; assay type: ADME, organism-based
[25] = system: Mus musculus; experiment: Biodistribution in seminal gland of NSG mouse xenografted with human PC-3 tumor at 0.37 to 0.74 MBq, iv after 0.5 hrs by gamma counting analysis; assay type: ADME, organism-based
[26] = system: Mus musculus; experiment: Biodistribution in testis of NSG mouse xenografted with human PC-3 tumor at 0.37 to 0.74 MBq, iv after 0.5 hrs by gamma counting analysis; assay type: ADME, organism-based
[27] = system: Spleen; experiment: Biodistribution in spleen of NSG mouse xenografted with human PC-3 tumor at 0.37 to 0.74 MBq, iv after 2 hrs by gamma counting analysis; assay type: ADME, organism-based
[28] = system: Heart; experiment: Biodistribution in heart of NSG mouse xenografted with human PC-3 tumor at 0.37 to 0.74 MBq, iv after 1 hr by gamma counting analysis in presence of BAY86-7548; assay type: ADME, organism-based

Q: For CC(C)C[C@H](NC(=O)C[C@H](O)[C@H](CC(C)C)NC(=O)[C@H](Cc1cnc[nH]1)NC(=O)CNC(=O)[C@@H](NC(=O)[C@H](C)NC(=O)[C@H](Cc1c[nH]c2ccccc12)NC(=O)[C@H](CCC(N)=O)NC(=O)[C@@H](Cc1ccccc1)NC(=O)CN1CCC(NC(=O)Cn2cc(C[N+](C)(C)C[B-](F)(F)[17F])nn2)CC1)C(C)C)C(N)=O, which Drug uptake [1] is on record?
A: 0.7 % ID/g

Q: And the Drug uptake [2]?
A: 0.01 % ID/g

Q: And the Drug uptake [3]?
A: 0.07 % ID/g

Q: And the Drug uptake [4]?
A: 2.43 % ID/g

Q: And the Drug uptake [5]?
A: 2.77 % ID/g

Q: And the Drug uptake [6]?
A: 0.25 % ID/g

Q: And the Drug uptake [7]?
A: 0.14 % ID/g

Q: What about the Drug uptake [8] of the same compound?
A: 0.18 % ID/g

Q: And the Drug uptake [9]?
A: 0.57 % ID/g

Q: What about the Drug uptake [10] of the same compound?
A: 2.63 % ID/g

Q: And the Drug uptake [11]?
A: 0.25 % ID/g

Q: And the Drug uptake [12]?
A: 0.13 % ID/g

Q: And the Drug uptake [13]?
A: 1.96 % ID/g

Q: What about the Drug uptake [14] of the same compound?
A: 2.1 % ID/g

Q: What about the Drug uptake [15] of the same compound?
A: 0.06 % ID/g

Q: And the Drug uptake [16]?
A: 0.25 % ID/g

Q: What about the Drug uptake [17] of the same compound?
A: 0.12 % ID/g

Q: And the Drug uptake [18]?
A: 0.05 % ID/g

Q: And the Drug uptake [19]?
A: 6.6 % ID/g

Q: What about the Drug uptake [20] of the same compound?
A: 0.54 % ID/g

Q: And the Drug uptake [21]?
A: 1.16 % ID/g

Q: And the Drug uptake [22]?
A: 0.21 % ID/g

Q: And the Drug uptake [23]?
A: 8.04 % ID/g

Q: And the Drug uptake [24]?
A: 0.13 % ID/g

Q: And the Drug uptake [25]?
A: 0.33 % ID/g

Q: And the Drug uptake [26]?
A: 0.42 % ID/g

Q: What about the Drug uptake [27] of the same compound?
A: 0.26 % ID/g

Q: What about the Drug uptake [28] of the same compound?
A: 0.18 % ID/g
